Data reported in patent publication US8049014B2, “Aminoquinoline derivatives, preparation method thereof and pharmaceutical composition comprising the same” (Korea Institute of Science and Technology, priority 2009, dated 2011).
Blank lines part the entries; values can stand above or below the compound they belong to.

How the values were obtained:
[1] = system: A375 melanoma tumor cells; experiment: Anti-proliferative effect on melanoma tumor cells (MTT reduction assay); assay type: cell-based
Experimental: (§1) 10% of fetal bovine serum (FBS) and 1% of penicillin/streptomycin were put into a Dulbecco's Modified Eagle (DMEM) medium, and A375P tumor cells obtained from ATCC was incubated in the above medium under a 5% CO2 atmosphere at 37° C. A375P cells were taken into 0.05% trypsin-0.02% ethylene-diamine tetraacetic acid (EDTA) and seeded it into wells of 96 well plate with 5×10^3 cells/well, and the viability of the cells was determined with a conventional [3-(4,5-dimethylthiazol-2-yl)-2,5-diphenyltetrazolium bromide, MTT] reduction assay. In the MTT efficacy experimentation, 15 μL of dye per well was put into the wells in accordance with the protocol of CellTiter 96® Assay (Promega), and then incubated for two hours, into which 100 μL of stop solution was added. The resultant was read after 24 hours. After one day of the plating, the obtained material was treated with a compound of the present invention. When it was treated with the compound, 10 mM of stock solution was prepared, and gradually diluted to one-third in dimethyl sulfoxide (DMSO). A test compound plate was prepared with 12 points, into which 0.5 μL was put (final concentration was DMSO 0.5%). Absorbance was read at a wavelength of 590 nm using EnVision 2103 (Perkin Elmer Boston, Mass., US), and GI50 values were calculated using GraphPad Prism 4.0 software.
(§2) GI50 values indicating inhibition of the compounds according to the examples of the present invention and control substances, on the proliferation of A375 melanoma tumor cells and HS27 fibroblasts. Sorafenib (BAY43-9006, Nexavar) which has been known as a substance having a good anti-proliferative effect on the melanoma tumor cells was used as a control substance.

HS27 fibroblasts = experiment: Inhibition of proliferation of HS27 fibroblasts (selectivity, MTT reduction assay); assay type: cell-based; conditions: Homo sapiens
Experimental: as §1, §2

[2] = Homo sapiens, A-375, A375 melanoma tumor cells

Structure (SMILES): Nc1cccc2c(Oc3cccc(NC(=O)c4ccc(Cl)c(C(F)(F)F)c4)c3)ccnc12 [Compound 1g, N-[3-(8-aminoquinolin-4-yloxy)phenyl]-4-chloro-3-trifluoromethylbenzamide]
GI50 [1, 2]: 6.73 µM
GI50 (HS27 fibroblasts): > 20 µM

Structure (SMILES): Nc1cccc2c(Oc3cccc(NC(=O)Nc4ccc(Cl)c(C(F)(F)F)c4)c3)ccnc12 [Compound 1f, 1-[3-(8-aminoquinolin-4-yloxy)phenyl]-3-(4-chloro-3-trifluoromethylphenyl)urea]
GI50 [1, 2]: 2.56 µM
GI50 (HS27 fibroblasts): 10.4 µM

Structure (SMILES): CC(=O)Nc1cccc2c(Oc3cc(NC(=O)c4ccccc4Cl)ccc3C)ccnc12 [Compound 1q, N-[3-(8-acetylaminoquinolin-4-yloxy)-4-methylphenyl]-2-chlorobenzamide]
GI50 [1, 2]: 2.12 µM
GI50 (HS27 fibroblasts): > 20 µM

Structure (SMILES): CC(=O)Nc1cccc2c(Oc3cc(NC(=O)c4cc(C)on4)ccc3C)ccnc12 [Compound 1r, N-[3-(8-acetylaminoquinolin-4-yloxy)-4-methylphenyl]-5-methylisoxazole-3-carboxylic acid amide]
GI50 [1, 2]: > 20 µM
GI50 (HS27 fibroblasts): > 20 µM

Structure (SMILES): CC(=O)Nc1cccc2c(Oc3cccc(NC(=O)c4ccc(Cl)c(C(F)(F)F)c4)c3)ccnc12 [Compound 1i, N-[3-(8-acetylaminoquinolin-4-yloxy)phenyl]-4-chloro-3-trifluoromethylbenzamide]
GI50 [1, 2]: 3.49 µM
GI50 (HS27 fibroblasts): > 20 µM

Structure (SMILES): CC(=O)Nc1cccc2c(Oc3cccc(NC(=O)Nc4ccc(Cl)c(C(F)(F)F)c4)c3)ccnc12 [Compound 1h, 1-[3-(8-acetylaminoquinolin-4-yloxy)phenyl]-3-(4-chloro-3-trifluoromethylphenyl)urea]
GI50 [1, 2]: 2.32 µM
GI50 (HS27 fibroblasts): 5.68 µM

Structure (SMILES): CC(=O)Nc1cccc2c(Oc3ccc(NC(=O)Nc4ccc(Cl)c(C(F)(F)F)c4)cc3)ccnc12 [Compound 1c, 1-[4-(8-acetylaminoquinolin-4-yloxy)phenyl]-3-(4-chloro-3-trifluoro-methylphenyl)urea]
GI50 [1, 2]: 4.19 µM
GI50 (HS27 fibroblasts): 6.02 µM

Structure (SMILES): CC(=O)Nc1cccc2c(Oc3ccc(NC(=O)c4ccc(Cl)c(C(F)(F)F)c4)cc3)ccnc12 [Compound 1d, N-[4-(8-acetylaminoquinolin-4-yloxy)phenyl]-4-chloro-3-trifluoromethylbenzamide]
GI50 [1, 2]: 3.14 µM
GI50 (HS27 fibroblasts): 5.47 µM

Structure (SMILES): CNC(=O)c1cc(Oc2ccc(NC(=O)Nc3ccc(Cl)c(C(F)(F)F)c3)cc2)ccn1 [Sorafenib, reference compound]
GI50 [1, 2]: 5.58 µM
GI50 (HS27 fibroblasts): 7.85 µM

Structure (SMILES): CC(=O)Nc1cccc2c(Oc3cc(NC(=O)c4cc(N5CCC(O)CC5)cc(C(F)(F)F)c4)ccc3C)ccnc12 [Compound 1o, N-[3-(8-acetylaminoquinolin-4-yloxy)-4-methylphenyl]-3-(4-hydroxypiperidin-1-yl)-5-trifluoromethylbenzamide]
GI50 [1, 2]: > 20 µM
GI50 (HS27 fibroblasts): > 20 µM

Structure (SMILES): CC(=O)Nc1cccc2c(Oc3cc(NC(=O)c4ccc(Cl)c(C(F)(F)F)c4)ccc3C)ccnc12 [Compound 1k, N-[3-(8-acetylaminoquinolin-4-yloxy)-4-methylphenyl]-4-chloro-3-trifluoromethylbenzamide]
GI50 [1, 2]: 1.3 µM
GI50 (HS27 fibroblasts): > 20 µM

Structure (SMILES): Nc1cccc2c(Oc3ccc(NC(=O)c4ccc(Cl)c(C(F)(F)F)c4)cc3)ccnc12 [Compound 1b, N-[4-(8-aminoquinolin-4-yloxy)phenyl]-4-chloro-3-trifluoromethylbenzamide]
GI50 [1, 2]: 5.69 µM
GI50 (HS27 fibroblasts): 7.63 µM

Structure (SMILES): Nc1cccc2c(Oc3ccc(NC(=O)Nc4ccc(Cl)c(C(F)(F)F)c4)cc3)ccnc12 [Compound 1a, 1-[4-(8-aminoquinolin-4-yloxy)phenyl]-3-(4-chloro-3-trifluoromethylphenyl)urea]
GI50 [1, 2]: 3.74 µM
GI50 (HS27 fibroblasts): 6.71 µM

Structure (SMILES): CC(=O)Nc1cccc2c(Oc3cc(NC(=O)c4cc(-n5cnc(C)c5)cc(C(F)(F)F)c4)ccc3C)ccnc12 [Compound 1p, N-[3-(8-acetylaminoquinolin-4-yloxy)-4-methylphenyl]-3-(4-methylimidazol-1-yl)-5-trifluoromethylbenzamide]
GI50 [1, 2]: > 20 µM
GI50 (HS27 fibroblasts): > 20 µM

Now from value to compound, other results behind:

GI50 ([1]; A375 melanoma tumor cells): 0.77 µM
GI50 [1, 2]: 0.77 to 0.8 µM
Structure (SMILES): CC(=O)Nc1cccc2c(Oc3cc(NC(=O)c4cc(C(F)(F)F)cc(C(F)(F)F)c4)ccc3C)ccnc12 [Compound 1m, N-[3-(8-acetylaminoquinolin-4-yloxy)-4-methylphenyl]-3,5-bistrifluoromethylbenzamide]
GI50 (HS27 fibroblasts): > 20 µM

GI50 [1, 2]: 1.03 µM
Structure (SMILES): Cc1ccc(NC(=O)c2ccc(Cl)c(C(F)(F)F)c2)cc1Oc1ccnc2c(NC(=O)c3ccccc3)cccc12 [Compound 1s, N-[3-(8-benzoylaminoquinolin-4-yloxy)-4-methylphenyl]-4-chloro-3-trifluoromethylbenzamide]
GI50 (HS27 fibroblasts): > 20 µM

GI50 ([1]; A375 melanoma tumor cells): 0.8 µM
GI50 [1, 2]: 0.77 to 0.8 µM
Structure (SMILES): O=C(Nc1ccc(Oc2ccnc3c(NC(=O)c4ccccc4)cccc23)cc1)c1ccc(Cl)c(C(F)(F)F)c1 [Compound 1e, N-[4-(8-benzoylaminoquinolin-4-yloxy)phenyl]-4-chloro-3-trifluoromethylbenzamide]
GI50 (HS27 fibroblasts): > 20 µM

GI50 ([1]; A375 melanoma tumor cells): 0.79 µM
GI50 [1, 2]: 0.77 to 0.8 µM
Structure (SMILES): CC(=O)Nc1cccc2c(Oc3cc(NC(=O)c4ccc([N+](=O)[O-])c(C(F)(F)F)c4)ccc3C)ccnc12 [Compound 1n, N-[3-(8-acetylaminoquinolin-4-yloxy)-4-methylphenyl]-4-nitro-3-trifluoromethylbenzamide]
GI50 (HS27 fibroblasts): > 20 µM

GI50 ([1]; A375 melanoma tumor cells): 0.78 µM
GI50 [1, 2]: 0.77 to 0.8 µM
Structure (SMILES): O=C(Nc1cccc(Oc2ccnc3c(NC(=O)c4ccccc4)cccc23)c1)c1ccc(Cl)c(C(F)(F)F)c1 [Compound 1j, N-[3-(8-benzoylaminoquinolin-4-yloxy)phenyl]-4-chloro-3-trifluoromethylbenzamide]
GI50 (HS27 fibroblasts): > 20 µM

GI50 [1, 2]: 1.28 µM
Structure (SMILES): CC(=O)Nc1cccc2c(Oc3cc(NC(=O)c4cccc(C(F)(F)F)c4)ccc3C)ccnc12 [Compound 1l, N-[3-(8-acetylaminoquinolin-4-yloxy)-4-methylphenyl]-3-trifluoromethylbenzamide]
GI50 (HS27 fibroblasts): > 20 µM
